Measurements: the supplement of paper PMC5412046

Legend:
[1] = system: SB.msgc-1; test: viability at highest tested concentration (MAXR) relative to DMSO; higher = less cytotoxic; details: SB.msgc-1 (sporadic gastric cancer)
Summary of the method: (§1)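 Each entry is viability relative to DMSO, given either at the highest concentration tested or as a trapezoidal area under the curve. Gastric cancer cells from hereditary or sporadic patients (500 cells in 5 μL medium per 1536 well) received compound in DMSO at 11 threefold-diluted concentrations, 23 nL by pintool. Luminescence from CellTiter-Glo was read after 48 h.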

[2] = system: SB.mhdgc-1; test: as above; details: SB.mhdgc-1 (hereditary c.1380delA CDH1 gastric cancer)
Summary of the method: as §1

[3] = system: SB.msgc-1; test: area under the dose-response curve of % viability (trapezoidal, 11 doses) (% viability x log10 concentration); higher = less cytotoxic; details: SB.msgc-1 (sporadic gastric cancer)
Summary of the method: as §1

[4] = system: SB.mhdgc-1; test: as above; details: SB.mhdgc-1 (hereditary c.1380delA CDH1 gastric cancer)
Summary of the method: as §1

Row | SMILES | viability [1] | viability [2] | area under the dose-response curve [3] | area under the dose-response curve [4]
1 | Cc1ccccc1C(C(=O)NC1CCCCC1)N(C(=O)Cn1ccnc1C)c1cccc(F)c1 (configuration not stated) [AGI-5198] (top concentration 46.0829 µM) | 83.5% | 114% | 508 | 597
2 | CCC(C1CCC(C)C(O1)C(C)C(O)C(C)C(=O)C(CC)C2OC\3(O[C@]4(CC[C@@](C)(O4)C5CC[C@@](O)(CC)C(C)O5)C(O)\C=C3)C(C)CC2C)C([O-])=O (some centres not stated) [Salinomycin] (top concentration 46.0829 µM) | 23.7% | 8.12% | 334 | 432
3 | CC(C)C[C@@H](N)[C@H](O)C(=O)N[C@H](C(=O)N[C@H](C(=O)N[C@@H](CC(=O)O)C(=O)O)C(C)C)C(C)C [Amastatin] (top concentration 46.0829 µM) | 97.6% | 84% | 474 | 543
4 | CN\1C(=O)/C(=C(\N=C1N2CCCC[S+]2([O-])=O)C(=O)NCC3=CC=C(F)C=C3)O (top concentration 46.0829 µM) | 99.9% | 130% | 544 | 620
5 | COc1ccc([C@@H]2CNC(=O)C2)cc1OC1CCCC1 [S-(+)-Rolipram] (top concentration 46.0829 µM) | 5.46% | 44.8% | 437 | 508
6 | Cn1cc(-c2ccc3ncc(Cc4ccc5ncccc5c4)n3n2)cn1 [NVP-BVU-972] (top concentration 46.0829 µM) | 98.9% | 49.7% | 506 | 374
7 | CC1=C(/C=C/C(C)=C/C=C/C(C)=C\C(=O)O)C(C)(C)CCC1 [Isotretinoin] (top concentration 46.0829 µM) | 49% | 43.2% | 405 | 388
8 | O=C(c1ccc(F)cc1)C1CCN(CCn2c(=O)[nH]c3ccccc3c2=O)CC1 [Ketanserin] (top concentration 46.0829 µM) | 115% | 109% | 523 | 536
9 | CC(O)(C#Cc1ccc2c(c1)N(c1nc(N)ncc1Cl)CC2)c1nccs1 (configuration not stated) (top concentration 46.0829 µM) | 56.3% | 41.6% | 486 | 453
10 | NC(=O)c1ncn([C@@H]2O[C@H](CO)[C@@H](O)[C@H]2O)n1 [Ribavirin] (top concentration 46.0829 µM) | 99.2% | 130% | 594 | 656
11 | OC(=O)CNC(=O)\C1=C(/O)C2=CC=CC=C2N(CC3=CC=CC=C3)C1=O [IOX2] (top concentration 46.0829 µM) | 89.6% | 88.1% | 543 | 475
12 | Cc1cc(-c2ccc(CC(=O)Nc3ccc(-c4cccnc4)cc3)cc2)ccn1 [Wnt-C59] (top concentration 46.0829 µM) | 49% | 49.6% | 501 | 497
13 | COc1cccc(Nc2c(C(N)=O)cnc3c(C)cc([S+](=O)([O-])c4cccc(C(=O)N(C)C)c4)cc23)c1 (top concentration 23.0415 µM) | 105% | 83.4% | 597 | 500
14 | CCNC(=O)Nc1ccc2ncc(Nc3ccc(C)cc3)nc2n1 (top concentration 46.0829 µM) | 27% | 20.8% | 347 | 307
15 | CCOC(=O)\C1=C\[C@]2(CC)CCCN3CCC4=C([C@H]23)[N]1C5=C4C=CC=C5 [Vinpocetine] (top concentration 46.0829 µM) | 4.04% | 3.48% | 469 | 490
16 | CN1CCN2c3ncccc3Cc3ccccc3C2C1 (configuration not stated) [Mirtazapine] (top concentration 46.0829 µM) | 99.7% | 150% | 545 | 548
17 | CC(C)(C)c1cc(C(=O)O)c(NC(=O)Nc2ccc3[nH]ncc3c2)s1 [S6K-18] (top concentration 46.0829 µM) | 77.1% | 99.1% | 524 | 426
18 | CN[C@@H]1CN(C[C@H]1OC)C2=NC3=C(C=C2)C(=O)C(=C\N3C4=NC=CS4)/C(O)=O [Vosaroxin] (top concentration 23.0415 µM) | 46% | 23.6% | 471 | 445
